Measurements taken from US20210238187A1, “AZIRIDINE CONTAINING EPOTHILONE ANALOGS, METHODS OF SYNTHESIS, METHODS OF TREATMENT, AND DRUG CONJUGATES” (WILLIAM MARSH RICE UNIVERSITY, priority 2017, published 2021).
pEC50, pIC50: −log10 of the molar value.

Key:
[1] = system: HEK 293T; assay: Cytotoxicity assay (CellTiter-Glo), HEK 293T; assay type: cell-based; conditions: Homo sapiens, 72 h, read-out: Cancer cell lines IC50, HEK 293T
[2] = system: MES SA DX; assay: Cytotoxicity assay (CellTiter-Glo), MES SA DX; assay type: cell-based, human; conditions: Homo sapiens, MES-SA, 72 h, read-out: Cancer cell lines IC50, MES SA DX
[3] = system: MES SA; assay: Cytotoxicity assay (CellTiter-Glo), MES SA; assay type: cell-based, human; conditions: Homo sapiens, MES-SA, 72 h, read-out: Cancer cell lines IC50, MES SA
[4] = system: MCF-7; assay: Cytotoxicity (GI50) assay, MCF-7; assay type: cell-based, human; conditions: Homo sapiens, MCF7, read-out: Cancer cell lines GI50, MCF-7
[5] = system: SNB-75; assay: Cytotoxicity (GI50) assay, SNB-75; assay type: cell-based, human; conditions: Homo sapiens, SNB-75, read-out: Cancer cell lines GI50, SNB-75
[6] = system: OVCAR-8; assay: Cytotoxicity (GI50) assay, OVCAR-8; assay type: cell-based, human; conditions: Homo sapiens, OVCAR-8, read-out: Cancer cell lines GI50, OVCAR-8
[7] = system: MDA-MB-435; assay: Cytotoxicity (GI50) assay, MDA-MB-435; assay type: cell-based, human; conditions: Homo sapiens, MDA-MB-435, read-out: Cancer cell lines GI50, MDA-MB-435
[8] = system: NCI/ADR-RES; assay: Cytotoxicity (GI50) assay, NCI/ADR-RES; assay type: cell-based, human; conditions: Homo sapiens, NCI/ADR-RES, read-out: Cancer cell lines GI50, NCI/ADR-RES
[9] = system: Tubulin; assay: Tubulin assembly induction; assay type: biochemical; conditions: […]

C/C(=C\c1cc(C)no1)[C@@H]1C[C@@H]2N(CCO)[C@]2(C)CCC[C@H](C)[C@H](O)[C@@H](C)C(=O)C(C)(C)[C@@H](O)CC(=O)O1 (stereo partly drawn) [compound 29, (1S,3S,7S,10R,11S,12S,16R)-7,11-Dihydroxy-17-(2-hydroxyethyl)-8,8,10,12,16-pentamethyl-3-[(1E)-1-(3-methyl-1,2-oxazol-5-yl)prop-1-en-2-yl]-4-oxa-17-azabicyclo[14.1.0]heptadecane-5,9-dione]
pIC50 [1]: 8.78
pIC50 [2]: < 7.15
pIC50 [3]: 8.18
GI50 [4]: 9.5 nM
GI50 [5]: 34 nM
GI50 [6]: 27 nM
GI50 [7]: 17 nM
GI50 [8]: 390 nM
pEC50 [9]: 4.35

C/C(=C\c1csc(-c2nc(C)cs2)n1)[C@@H]1C[C@@H]2N(CCO)[C@]2(C)CCC[C@H](C)[C@H](O)[C@@H](C)C(=O)C(C)(C)[C@@H](O)CC(=O)O1 (stereo partly drawn) [compound 22, (1S,3S,7S,10R,11S,12S,16R)-7,11-Dihydroxy-17-(2-hydroxyethyl)-8,8,10,12,16-pentamethyl-3-[(1E)-1-(4′-methyl-2,2′-bi-1,3-thiazol-4-yl)prop-1-en-2-yl]-4-oxa-17-azabicyclo[14.1.0]-heptadecane-5,9-dione]
pIC50 [1]: 8.81
pIC50 [2]: 6.41
pIC50 [3]: 8.73
GI50 [4]: 7.5 nM
GI50 [5]: 18 nM
GI50 [6]: 18 nM
GI50 [7]: 4 nM
GI50 [8]: 240 nM
pEC50 [9]: 4.77

C/C(=C\c1coc(C)n1)[C@@H]1C[C@@H]2N(CCO)[C@]2(C)CCC[C@H](C)[C@H](O)[C@@H](C)C(=O)C(C)(C)[C@@H](O)CC(=O)O1 (stereo partly drawn) [compound 16, (1S,3S,7S,10R,11S,12S,16R)-7,11-Dihydroxy-17-(2-hydroxyethyl)-8,8,10,12,16-pentamethyl-3-[(1E)-1-(2-methyl-1,3-oxazol-4-yl)prop-1-en-2-yl]-4-oxa-17-azabicyclo[14.1.0]heptadecane-5,9-dione]
pIC50 [1]: 9.02
pIC50 [2]: 7.10
pIC50 [3]: 8.57
GI50 [4]: 17 nM
GI50 [5]: 19 nM
GI50 [6]: 39 nM
GI50 [7]: 11 nM
GI50 [8]: 190 nM
pEC50 [9]: 4.42

CC(=O)[C@@H]1C[C@@H]2N[C@]2(C)CCC[C@H](C)[C@H](O)[C@@H](C)C(=O)C(C)(C)[C@@H](O)CC(=O)O1 [compound 79, (1S,3S,7S,10R,11S,12S,16R)-3-Acetyl-7,11-dihydroxy-8,8,10,12,16-pentamethyl-4-oxa-17-azabicyclo[14.1.0]heptadecane-5,9-dione]
pIC50 [1]: < 5.60
pIC50 [2]: < 5.60
pIC50 [3]: < 5.60
GI50 [4]: > 5000 nM
GI50 [5]: > 5000 nM
GI50 [6]: > 5000 nM
GI50 [7]: > 5000 nM
GI50 [8]: > 5000 nM
pEC50 [9]: < 4.22

C/C(=C\c1ccn(Cn2cccn2)n1)[C@@H]1C[C@@H]2N[C@]2(C)CCC[C@H](C)[C@H](O)[C@@H](C)C(=O)C(C)(C)[C@@H](O)CC(=O)O1 [compound 33, (1S,3S,7S,10R,11S,12S,16R)-7,11-Dihydroxy-8,8,10,12,16-pentamethyl-3-{(1E)-1-[1-(1H-pyrazol-1-ylmethyl)-1H-pyrazol-3-yl]prop-1-en-2-yl}-4-oxa-17-azabicyclo[14.1.0]heptadecane-5,9-dione]
pIC50 [1]: 6.76
pIC50 [2]: < 5.60
pIC50 [3]: 6.97
GI50 [4]: 140 nM
GI50 [5]: 450 nM
GI50 [6]: 1100 nM
GI50 [7]: 160 nM
GI50 [8]: > 5000 nM
pEC50 [9]: < 4.22

C/C(=C\c1csc(CCO)n1)[C@@H]1C[C@@H]2N(CCO)[C@]2(C)CCC[C@H](C)[C@H](O)[C@@H](C)C(=O)C(C)(C)[C@@H](O)CC(=O)O1 (stereo partly drawn) [compound 19, (1S,3S,7S,10R,11S,12S,16R)-7,11-Dihydroxy-17-(2-hydroxyethyl)-3-{(1E)-1-[2-(2-hydroxyethyl)-1,3-thiazol-4-yl]prop-1-en-2-yl}-8,8,10,12,16-pentamethyl-4-oxa-17-azabicyclo-[14.1.0]heptadecane-5,9-dione]
pIC50 [1]: 8.47
pIC50 [2]: < 6.00
pIC50 [3]: 8.30
GI50 [4]: 40 nM
GI50 [5]: 36 nM
GI50 [6]: 38 nM
GI50 [7]: 12 nM
GI50 [8]: 4800 nM
pEC50 [9]: < 4.22

C/C(=C\c1snnc1C)[C@@H]1C[C@@H]2N(CCO)[C@]2(C)CCC[C@H](C)[C@H](O)[C@@H](C)C(=O)C(C)(C)[C@@H](O)CC(=O)O1 (stereo partly drawn) [compound 30, (1S,3S,7S,10R,11S,12S,16R)-7,11-Dihydroxy-17-(2-hydroxyethyl)-8,8,10,12,16-pentamethyl-3-[(1E)-1-(4-methyl-1,2,3-thiadiazol-5-yl)prop-1-en-2-yl]-4-oxa-17-azabicyclo[14.1.0]heptadecane-5,9-dione]
pIC50 [1]: 7.19
pIC50 [2]: < 5.60
pIC50 [3]: 7.42
GI50 [4]: 58 nM
GI50 [5]: 100 nM
GI50 [6]: 210 nM
GI50 [7]: 48 nM
GI50 [8]: 2800 nM
pEC50 [9]: < 4.22

C/C(=C\c1cnon1)[C@@H]1C[C@@H]2N(CCO)[C@]2(C)CCC[C@H](C)[C@H](O)[C@@H](C)C(=O)C(C)(C)[C@@H](O)CC(=O)O1 (stereo partly drawn) [compound 27, (1S,3S,7S,10R,11S,12S,16R)-7,11-Dihydroxy-17-(2-hydroxyethyl)-8,8,10,12,16-pentamethyl-3-[(1E)-1-(1,2,5-oxadiazol-3-yl)prop-1-en-2-yl]-4-oxa-17-azabicyclo[14.1.0]heptadecane-5,9-dione]
pIC50 [1]: 7.93
pIC50 [2]: ≤ 5.60
pIC50 [3]: 7.41
GI50 [4]: 140 nM
GI50 [5]: 450 nM
GI50 [6]: 580 nM
GI50 [7]: 120 nM
GI50 [8]: > 5000 nM
pEC50 [9]: < 4.22

C/C(=C\c1cc(-c2ccc(F)cc2)on1)[C@@H]1C[C@@H]2N(CCO)[C@]2(C)CCC[C@H](C)[C@H](O)[C@@H](C)C(=O)C(C)(C)[C@@H](O)CC(=O)O1 (stereo partly drawn) [compound 31, (1S,3S,7S,10R,11S,12S,16R)-3-{(1E)-1-[5-(4-Fluorophenyl)-1,2-oxazol-3-yl]prop-1-en-2-yl}-7,11-dihydroxy-17-(2-hydroxyethyl)-8,8,10,12,16-pentamethyl-4-oxa-17-azabicyclo[14.1.0]heptadecane-5,9-dione]
pIC50 [1]: 9.49
pIC50 [2]: 7.77
pIC50 [3]: 8.85
GI50 [4]: 13 nM
GI50 [5]: 65 nM
GI50 [6]: 70 nM
GI50 [7]: 11 nM
GI50 [8]: 50 nM
pEC50 [9]: 4.72

C/C(=C\c1csc(C)n1)[C@@H]1C[C@@H]2O[C@]2(C)CCC[C@H](C)[C@H](O)[C@@H](C)C(=O)C(C)(C)[C@@H](O)CC(=O)O1 [compound 2, epothilone B, reference compound]
pIC50 [1]: 9.59
pIC50 [2]: 8.94
pIC50 [3]: 9.55
GI50 [4]: 9.2 nM
GI50 [5]: 8 nM
GI50 [6]: 15 nM
GI50 [7]: 7 nM
GI50 [8]: 19 nM

C/C(=C\c1csc(-c2nc(C)cs2)n1)[C@@H]1C[C@@H]2N[C@]2(C)CCC[C@H](C)[C@H](O)[C@@H](C)C(=O)C(C)(C)[C@@H](O)CC(=O)O1 [compound 32, (1S,3S,7S,10R,11S,12S,16R)-7,11-Dihydroxy-8,8,10,12,16-pentamethyl-3-[(1E)-1-(4′-methyl-2,2′-bi-1,3-thiazol-4-yl)prop-1-en-2-yl]-4-oxa-17-azabicyclo[14.1.0]heptadecane-5,9-dione]
pIC50 [1]: 7.20
pIC50 [2]: < 6.40
pIC50 [3]: 7.59
GI50 [4]: 25 nM
GI50 [5]: 68 nM
GI50 [6]: 58 nM
GI50 [7]: 11 nM
GI50 [8]: 170 nM
pEC50 [9]: 4.37

C/C(=C\c1ccn(Cn2cccn2)n1)[C@@H]1C[C@@H]2N(CCO)[C@]2(C)CCC[C@H](C)[C@H](O)[C@@H](C)C(=O)C(C)(C)[C@@H](O)CC(=O)O1 (stereo partly drawn) [compound 25, (1S,3S,7S,10R,11S,12S,16R)-7,11-Dihydroxy-17-(2-hydroxyethyl)-8,8,10,12,16-pentamethyl-3-{(1E)-1-[1-(1H-pyrazol-1-ylmethyl)-1H-pyrazol-3-yl]prop-1-en-2-yl}-4-oxa-17-azabicyclo-[14.1.0]heptadecane-5,9-dione]
pIC50 [1]: 7.56
pIC50 [2]: < 5.60
pIC50 [3]: 7.99
GI50 [4]: 32 nM
GI50 [5]: 24 nM
GI50 [6]: 130 nM
GI50 [7]: 19 nM
GI50 [8]: > 5000 nM
pEC50 [9]: < 4.22

CSc1nc(/C=C(\C)[C@@H]2C[C@@H]3N(CCOC(C)=O)[C@]3(C)CCC[C@H](C)[C@H](OC(C)=O)[C@@H](C)C(=O)C(C)(C)[C@@H](OC(C)=O)CC(=O)O2)co1 (stereo partly drawn) [compound 18, (1S,3S,7S,10R,11S,12S,16R)-17-(2-Acetoxyethyl)-8,8,10,12,16-pentamethyl-3-{(1E)-1-[2-(methylsulfanyl)-1,3-oxazol-4-yl]prop-1-en-2-yl}-5,9-dioxo-4-oxa-17-azabicyclo[14.1.0]-heptadecane-7,11-diyl diacetate]
pIC50 [1]: 7.75
pIC50 [2]: 6.43
pIC50 [3]: 6.93
GI50 [4]: 1100 nM
GI50 [5]: 290 nM
GI50 [6]: 290 nM
GI50 [7]: 120 nM
GI50 [8]: 2300 nM
pEC50 [9]: < 4.22
